Data: US6984649B1, “Pyridine derivatives” (Bayer Aktiengesellschaft, priority 2000, dated 2006)

test system: A549 human lung epithelium cell line; experiment: RANTES production in response to TNF-α from A549 cells; assay type: cell-based; conditions: Homo sapiens, A549, A549 cells, 100 ng/ml TNF-α, read-out: Cellular activity grade (A549) (Cellular IC50)
How it was run: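 RANTES released into supernatant was measured by DELFIA-type sandwich immunoassay, Eu-labelled detection antibody, 340 nm excitation/615 nm emission, recombinant RANTES standard. Beforehand, cells seeded at 4×10^4/well received test compound (1% DMSO) for 1 h at 37 °C, followed by 24 h TNF-α (100 ng/ml) stimulation.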

Compared with `O=c1[nH]c2nc(-c3c(O)cccc3OCC3CC3)cc(C3CCCNC3)c2cc1[N+](=O)[O-]` (centres unmarked) [Example 25-05], `N#Cc1cc2c(C3CCCNC3)cc(-c3c(O)cccc3OCC3CC3)nc2[nH]c1=O` (centres unmarked) [Example 25-06] is lower in IC50: 1000 to 10000 nM for the first, < 1000 nM for the second. The second is the more potent here.

`O=c1[nH]c2nc(-c3c(O)cccc3OCC3CC3)cc(C3CCCNC3)c2cc1S(=O)(=O)c1ccccc1` (centres unmarked) [Example 25-07] and `O=C(NCc1ccccc1)c1cc2c(C3CCCNC3)cc(-c3c(O)cccc3OCC3CC3)nc2[nH]c1=O` (centres unmarked) [Example 31-06] cannot be ordered by IC50: < 1000 nM for the first, < 1000 nM for the second.

`NC(=O)c1cc2c(C3CCCNC3)cc(-c3c(O)cccc3OCC3CC3)nc2[nH]c1=O` (centres unmarked) [Example 25-08] and `CNC(=O)c1cc2c(C3CCCNC3)cc(-c3c(O)cccc3OCC3CC3)nc2[nH]c1=O` (centres unmarked) [Example 31-03] cannot be ordered by IC50: < 1000 nM for the first, < 1000 nM for the second.

`CCOC(=O)C1Cc2c(C3CCCNC3)cc(-c3c(O)cccc3OCC3CC3)nc2NC1=O` (centres unmarked) [Example 26-03] and `NC(=O)C1Cc2c(C3CCCNC3)cc(-c3c(O)cccc3OCC3CC3)nc2NC1=O` (centres unmarked) [Example 26-05] cannot be ordered by IC50: < 1000 nM for the first, < 1000 nM for the second.

`CCOC(=O)C1Cc2c(C3CCNCC3)cc(-c3c(O)cccc3OCC3CC3)nc2NC1=O` (centres unmarked) [Example 26-04] and `O=C1CCc2c(C3CCNCC3)cc(-c3c(O)cccc3OCC3CC3)nc2N1` [Example 27-04] cannot be ordered by IC50: < 1000 nM for the first, < 1000 nM for the second.

`CCCOc1cccc(O)c1-c1cc(C2CCCNC2)c2c(n1)NC(=O)C(C(=O)OCC)C2` (centres unmarked) [Example 26-06] and `CCCOc1cccc(O)c1-c1cc(C2CCCNC2)c2c(n1)NC(=O)CC2` (centres unmarked) [Example 27-02] cannot be ordered by IC50: < 1000 nM for the first, < 1000 nM for the second.

`O=C1CCc2c(C3CCCNC3)cc(-c3c(O)cccc3OCC3CC3)nc2N1` (centres unmarked) [Example 27-03, 7-[2-(cyclopropylmethoxy)-6-hydroxyphenyl]-5-(3-piperidinyl)-3,4-dihydro-1,8-naphthyridin-2(1H)-one] and `CCCOc1cccc(O)c1-c1cc(C2CCNCC2)c2c(n1)NC(=O)CC2` [Example 27-05] cannot be ordered by IC50: < 1000 nM for the first, < 1000 nM for the second.

First: CN(C)C(=O)c1cc2c(C3CCCNC3)cc(-c3c(O)cccc3OCC3CC3)nc2[nH]c1=O (centres unmarked) [Example 31-04]
Second: CN(C)CCNC(=O)c1cc2c(C3CCCNC3)cc(-c3c(O)cccc3OCC3CC3)nc2[nH]c1=O (centres unmarked) [Example 31-11]
The IC50 of the first is higher: 1000 to 10000 nM for the first, < 1000 nM for the second. The second is the more potent here.

`O=C(c1cc2c(C3CCCNC3)cc(-c3c(O)cccc3OCC3CC3)nc2[nH]c1=O)N1CCCC1` (centres unmarked) [Example 31-05] and `O=C(c1cc2c(C3CCCNC3)cc(-c3c(O)cccc3OCC3CC3)nc2[nH]c1=O)N1CCOCC1` (centres unmarked) [Example 31-08] fall in the same range of IC50: 1000 to 10000 nM for the first, 1000 to 10000 nM for the second.

First: COCCNC(=O)c1cc2c(C3CCCNC3)cc(-c3c(O)cccc3OCC3CC3)nc2[nH]c1=O (centres unmarked) [Example 31-07]
Second: O=C(NCCO)c1cc2c(C3CCCNC3)cc(-c3c(O)cccc3OCC3CC3)nc2[nH]c1=O (centres unmarked) [Example 31-20]
The IC50 of the first is lower: < 1000 nM for the first, 1000 to 10000 nM for the second.

Compared with `O=C(c1cc2c(C3CCCNC3)cc(-c3c(O)cccc3OCC3CC3)nc2[nH]c1=O)N1CCNCC1` (centres unmarked) [Example 31-09], `O=C(NC1CC1)c1cc2c(C3CCCNC3)cc(-c3c(O)cccc3OCC3CC3)nc2[nH]c1=O` (centres unmarked) [Example 31-21] is lower in IC50: > 10000 nM for the first, < 1000 nM for the second. The second is the more potent here.

First: CC(C)NC(=O)c1cc2c(C3CCCNC3)cc(-c3c(O)cccc3OCC3CC3)nc2[nH]c1=O (centres unmarked) [Example 31-10]
Second: C[C@H](NC(=O)c1cc2c(C3CCCNC3)cc(-c3c(O)cccc3OCC3CC3)nc2[nH]c1=O)C(=O)O (some centres unmarked) [Example 31-16]
The IC50 of the first is lower: < 1000 nM for the first, 1000 to 10000 nM for the second. The first is the more potent here.

`O=C(NC1Cc2ccccc2C1)c1cc2c(C3CCCNC3)cc(-c3c(O)cccc3OCC3CC3)nc2[nH]c1=O` (centres unmarked) [Example 31-12] and `O=C(NC1CCC1)c1cc2c(C3CCCNC3)cc(-c3c(O)cccc3OCC3CC3)nc2[nH]c1=O` (centres unmarked) [Example 31-22] cannot be ordered by IC50: < 1000 nM for the first, < 1000 nM for the second.

`O=C(NC(c1ccccc1)c1ccccc1)c1cc2c(C3CCCNC3)cc(-c3c(O)cccc3OCC3CC3)nc2[nH]c1=O` (centres unmarked) [Example 31-13] and `C[C@H](NC(=O)c1cc2c(C3CCCNC3)cc(-c3c(O)cccc3OCC3CC3)nc2[nH]c1=O)c1ccccc1` (some centres unmarked) [Example 31-14] cannot be ordered by IC50: < 1000 nM for the first, < 1000 nM for the second.

Compared with `C[C@@H](NC(=O)c1cc2c(C3CCCNC3)cc(-c3c(O)cccc3OCC3CC3)nc2[nH]c1=O)c1ccccc1` (some centres unmarked) [Example 31-15], `O=C(NCCc1ccccc1)c1cc2c(C3CCCNC3)cc(-c3c(O)cccc3OCC3CC3)nc2[nH]c1=O` (centres unmarked) [Example 31-17] is higher in IC50: < 1000 nM for the first, 1000 to 10000 nM for the second.

`O=C(NC1CCCCC1)c1cc2c(C3CCCNC3)cc(-c3c(O)cccc3OCC3CC3)nc2[nH]c1=O` (centres unmarked) [Example 31-18] and `O=C(NC1CCCCCC1)c1cc2c(C3CCCNC3)cc(-c3c(O)cccc3OCC3CC3)nc2[nH]c1=O` (centres unmarked) [Example 31-24] cannot be ordered by IC50: < 1000 nM for the first, < 1000 nM for the second.

Going from `O=C(NCC1CCCCC1)c1cc2c(C3CCCNC3)cc(-c3c(O)cccc3OCC3CC3)nc2[nH]c1=O` (centres unmarked) [Example 31-19] to `O=C(NC1CCCC1)c1cc2c(C3CCCNC3)cc(-c3c(O)cccc3OCC3CC3)nc2[nH]c1=O` (centres unmarked) [Example 31-23], the IC50 falls from > 10000 nM to < 1000 nM. The second is the more potent here.

`CCC(CC)NC(=O)c1cc2c(C3CCCNC3)cc(-c3c(O)cccc3OCC3CC3)nc2[nH]c1=O` (centres unmarked) [Example 31-25] and `CCCC(CCC)NC(=O)c1cc2c(C3CCCNC3)cc(-c3c(O)cccc3OCC3CC3)nc2[nH]c1=O` (centres unmarked) [Example 31-26] cannot be ordered by IC50: < 1000 nM for the first, < 1000 nM for the second.

`O=C(NCC(F)(F)F)c1cc2c(C3CCCNC3)cc(-c3c(O)cccc3OCC3CC3)nc2[nH]c1=O` (centres unmarked) [Example 31-27] and `CC(=O)NCCNc1cc(-c2c(O)cccc2OCC2CC2)nc(N)c1C#N` [Example 34-19] cannot be ordered by IC50: < 1000 nM for the first, < 1000 nM for the second.

Compared with `N#Cc1c(N2CCCC(C(N)=O)C2)cc(-c2ccccc2O)nc1N` (centres unmarked) [Example 34-06], `N#Cc1c(N2CCCNCC2)cc(-c2ccccc2O)nc1N` [Example 34-08] is lower in IC50: > 10000 nM for the first, 1000 to 10000 nM for the second.

`N#Cc1c(NC2CCNCC2)cc(-c2ccccc2O)nc1N` [Example 34-07] and `N#Cc1c(N2CCNCC2)cc(-c2ccccc2O)nc1N` [Example 34-09] fall in the same range of IC50: 1000 to 10000 nM for the first, 1000 to 10000 nM for the second.

Compared with `N#Cc1c(NCCN)cc(-c2ccccc2O)nc1N` [Example 34-10], `N#Cc1c(NCCCN)cc(-c2ccccc2O)nc1N` [Example 34-11] is higher in IC50: < 1000 nM for the first, 1000 to 10000 nM for the second.

`CNCCNc1cc(-c2ccccc2O)nc(N)c1C#N` [Example 34-12] and `N#Cc1c(NCCNCc2ccccc2)cc(-c2ccccc2O)nc1N` [Example 34-13] cannot be ordered by IC50: < 1000 nM for the first, < 1000 nM for the second.

`N#Cc1c(NCCNCc2ccccc2)cc(-c2c(O)cccc2OCC2CC2)nc1N` [Example 34-15] and `N#Cc1c(NCCNC(=O)c2ccccc2)cc(-c2c(O)cccc2OCC2CC2)nc1N` [Example 34-16] cannot be ordered by IC50: < 1000 nM for the first, < 1000 nM for the second.

Going from `N#Cc1c(NCCNS(=O)(=O)c2ccccc2)cc(-c2c(O)cccc2OCC2CC2)nc1N` [Example 34-17] to `N#Cc1c(NCCNC(=O)Nc2ccccc2)cc(-c2c(O)cccc2OCC2CC2)nc1N` [Example 34-18], the IC50 falls from > 10000 nM to < 1000 nM.
